Measurements: article PMC11124822, “Discovery and Anticancer Screening of Novel Oxindole-Based Derivative Bearing Pyridyl Group as Potent and Selective Dual FLT3/CDK2 Kinase Inhibitor” (Pharmaceuticals, 2024)

Key:
Test in all cases: NCI-60 antiproliferative screen (SRB)
CCRF-CEM = assay type: cell-based, human; details: Homo sapiens; 10 µM single dose, 48 h; CCRF-CEM (Leukemia); read-out: Growth inhibition (%)
HL-60(TB) = assay type: cell-based, human; details: Homo sapiens; 10 µM single dose, 48 h; HL-60(TB) (Leukemia); read-out: Growth inhibition (%)
K-562 = assay type: cell-based, human; details: Homo sapiens, K562; 10 µM single dose, 48 h; K-562 (Leukemia); read-out: Growth inhibition (%)
MOLT-4 = assay type: cell-based; details: Homo sapiens; 10 µM single dose, 48 h; MOLT-4 (Leukemia); read-out: Growth inhibition (%)
RPMI-8226 = assay type: cell-based, human; details: Homo sapiens; 10 µM single dose, 48 h; RPMI-8226 (Leukemia); read-out: Growth inhibition (%)
A549/ATCC = assay type: cell-based, human; details: Homo sapiens; 10 µM single dose, 48 h; A549/ATCC (NSCLC); read-out: Growth inhibition (%)
NCI-H522 = assay type: cell-based, human; details: Homo sapiens; 10 µM single dose, 48 h; NCI-H522 (NSCLC); read-out: Growth inhibition (%)
COLO 205 = assay type: cell-based, human; details: Homo sapiens; 10 µM single dose, 48 h; COLO 205 (Colon); read-out: Growth inhibition (%)
HCT-116 = assay type: cell-based, human; details: Homo sapiens; 10 µM single dose, 48 h; HCT-116 (Colon); read-out: Growth inhibition (%)
HCT-15 = assay type: cell-based, human; details: Homo sapiens; 10 µM single dose, 48 h; HCT-15 (Colon); read-out: Growth inhibition (%)
KM12 = assay type: cell-based, human; details: Homo sapiens; 10 µM single dose, 48 h; KM12 (Colon); read-out: Growth inhibition (%)
SF-295 = assay type: cell-based, human; details: Homo sapiens; 10 µM single dose, 48 h; SF-295 (CNS); read-out: Growth inhibition (%)
SNB-19 = assay type: cell-based, human; details: Homo sapiens; 10 µM single dose, 48 h; SNB-19 (CNS); read-out: Growth inhibition (%)
M14 = assay type: cell-based, human; details: Homo sapiens; 10 µM single dose, 48 h; M14 (Melanoma); read-out: Growth inhibition (%)
SK-MEL-2 = assay type: cell-based, human; details: Homo sapiens; 10 µM single dose, 48 h; SK-MEL-2 (Melanoma); read-out: Growth inhibition (%)
SK-MEL-28 = assay type: cell-based, human; details: Homo sapiens; 10 µM single dose, 48 h; SK-MEL-28 (Melanoma); read-out: Growth inhibition (%)
UACC-257 = assay type: cell-based, human; details: Homo sapiens; 10 µM single dose, 48 h; UACC-257 (Melanoma); read-out: Growth inhibition (%)
UACC-62 = assay type: cell-based, human; details: Homo sapiens; 10 µM single dose, 48 h; UACC-62 (Melanoma); read-out: Growth inhibition (%)
OVCAR-3 = assay type: cell-based, human; details: Homo sapiens; 10 µM single dose, 48 h; OVCAR-3 (Ovarian); read-out: Growth inhibition (%)
OVCAR-5 = assay type: cell-based, human; details: Homo sapiens; 10 µM single dose, 48 h; OVCAR-5 (Ovarian); read-out: Growth inhibition (%)
OVCAR-8 = assay type: cell-based, human; details: Homo sapiens; 10 µM single dose, 48 h; OVCAR-8 (Ovarian); read-out: Growth inhibition (%)
NCI/ADR-RES = assay type: cell-based, human; details: Homo sapiens; 10 µM single dose, 48 h; NCI/ADR-RES (Ovarian); read-out: Growth inhibition (%)
SK-OV-3 = assay type: cell-based, human; details: Homo sapiens; 10 µM single dose, 48 h; SK-OV-3 (Ovarian); read-out: Growth inhibition (%)
A498 = assay type: cell-based, human; details: Homo sapiens; 10 µM single dose, 48 h; A498 (Renal); read-out: Growth inhibition (%)
CAKI-1 = assay type: cell-based, human; details: Homo sapiens; 10 µM single dose, 48 h; CAKI-1 (Renal); read-out: Growth inhibition (%)
SN12C = assay type: cell-based, human; details: Homo sapiens; 10 µM single dose, 48 h; SN12C (Renal); read-out: Growth inhibition (%)
PC-3 = assay type: cell-based, human; details: Homo sapiens; 10 µM single dose, 48 h; PC-3 (Prostate); read-out: Growth inhibition (%)
MDA-MB-468 = assay type: cell-based, human; details: Homo sapiens; 10 µM single dose, 48 h; MDA-MB-468 (Breast); read-out: Growth inhibition (%)
OVCAR-4 = details: Homo sapiens, OVCAR-4, 48 h, read-out: Growth inhibition (%)

In the case of `O=C1Nc2ccccc2C1=Cc1ccc(OCc2cccnc2)cc1` (mixture of isomers) [Compound 5i, (E/Z)-3-[4-(Pyridin-3-ylmethoxy)benzylidene]indolin-2-one], the inhibition at 10 µM (CCRF-CEM) is reported as 52.4%, the inhibition at 10 µM (HL-60(TB)) is reported as 49.9% and the inhibition at 10 µM (K-562) is reported as 75.9%. The inhibition at 10 µM (MOLT-4) was 70%, the inhibition at 10 µM (RPMI-8226) was 45.4% and the inhibition at 10 µM (A549/ATCC) was 26.2%. It also gave an inhibition at 10 µM (NCI-H522) of 49.9%, an inhibition at 10 µM (COLO 205) of 26.1% and an inhibition at 10 µM (HCT-116) of 56.5%. The inhibition at 10 µM (HCT-15) was 60.5%, the inhibition at 10 µM (KM12) was 87.4% and the inhibition at 10 µM (SF-295) was 31.2%. It also gave an inhibition at 10 µM (SNB-19) of 37.1%, an inhibition at 10 µM (M14) of 37.6% and an inhibition at 10 µM (SK-MEL-2) of 24.1%. For the same compound, the inhibition at 10 µM (SK-MEL-28) was -2.65%, the inhibition at 10 µM (UACC-257) was 30.5% and the inhibition at 10 µM (UACC-62) was 43.5%. For the same compound, the inhibition at 10 µM (OVCAR-3) was -9.24%, the inhibition at 10 µM (OVCAR-5) was -27.6% and the inhibition at 10 µM (OVCAR-8) was 47.2%. The inhibition at 10 µM (NCI/ADR-RES) was 55%, the inhibition at 10 µM (SK-OV-3) was 13.2% and the inhibition at 10 µM (A498) was -17.8%. For the same compound, the inhibition at 10 µM (CAKI-1) was 56.7%, the inhibition at 10 µM (SN12C) was 27.1% and the inhibition at 10 µM (PC-3) was 29.8%. It also gave an inhibition at 10 µM (MDA-MB-468) of 51.2% and an inhibition at 10 µM (OVCAR-4) of 37.8%.
